This note sets out measurements from patent US20220213047A1, “CARBONIC ANHYDRASE INHIBITORS FOR TREATMENT OF NEISSERIA GONORRHOEAE INFECTION” (Purdue Research Foundation, priority 2021, published 2022).

Holding throughout (type): cell-based
The test system of one test is S. aureus. As to the kind of experiment: MIC50 against pathogenic and commensal bacteria: S. aureus. The conditions noted are these: Staphylococcus aureus; S. aureus (12 strains); normal. The source says: (§1) We have shown that CAIs display a narrow-spectrum of activity (Table 6). We have previously shown that CAIs have potential as anti-enterococcal agents for decolonization of the gut and treating systemic vancomycin-resistant enterococci (VRE) infections without affecting commensal strains common in the human microbiome or other pathogenic bacteria. […] The extremely narrow spectrum of this class of inhibitors would be a positive for clinical use as the molecules: 1) would not have deleterious effects on normal microbiota, and 2) would have less opportunity for resistance to arise to other important pathogenic strains aside from VRE.

Test [1] has as its system N. gonorrhoeae. As to the kind of experiment: Checkerboard assay, synergy with AZI. The conditions noted are these: combination with AZI, standard checkerboard assay. From the text:
CAIs work synergistically with approved antibiotics—Dual therapy with ceftriaxone and azithromycin is the recommended approach to treat infections caused by N. gonorrhoeae. The use of two antibiotics in conjunction is thought to curb the rapid emergence of resistance to either antibiotic, if used alone. Thus, we investigated the potential of CAIs to be used in combination with other antibiotics against N. gonorrhoeae^56 (FIG. 5).

Another test has as its system Klebsiella spp. As to the kind of experiment: MIC50 against pathogenic and commensal bacteria: Klebsiella spp. The conditions noted are these: Klebsiella spp. (4 strains); normal.
Excerpt: as §1

Test [2] relates to N. gonorrhoeae. As to the kind of experiment: Post-antibiotic effect (PAE). To be noted: after exposure to 10×MIC for 1 hour.
The subject of a further test is L. rhamnosus. As to the kind of experiment: MIC50 against pathogenic and commensal bacteria: L. rhamnosus. The conditions noted are these: Lacticaseibacillus rhamnosus; L. rhamnosus (1 strain); normal.
Excerpt: as §1

For the next test, the system named is Enterobacter spp. Kind of test: MIC50 against pathogenic and commensal bacteria: Enterobacter spp. To be noted: Enterobacter spp. (4 strains); normal.
Excerpt: as §1

Another test relates to S. pneumoniae. As to the kind of experiment: MIC50 against pathogenic and commensal bacteria: S. pneumoniae. To be noted: Streptococcus pneumoniae; S. pneumoniae (4 strains); normal.
Excerpt: as §1

Another test has as its system L. jensenii. Kind of test: MIC50 against pathogenic and commensal bacteria: L. jensenii. The conditions noted are these: Lactobacillus jensenii; L. jensenii (3 strains); normal.
Excerpt: as §1

Usually MIC50 stands for an inhibitory concentration at the 50% level, which refers to growth in some studies and to a panel of isolates in others. The low end stands for greater potency, the high end for weaker potency.

On to `CCOc1ccc2nc(S(N)(=O)=O)sc2c1` [Ethoxzolamide], for which the MIC50 in the test on S. aureus was above 256 µg/mL; in the test with Klebsiella spp., above 256 µg/mL; with L. rhamnosus, above 256 µg/mL; against Enterobacter spp. it was above 256 µg/mL; with S. pneumoniae, above 512 µg/mL; in the test with L. jensenii it was above 256 µg/mL. Besides, the FIC in the test with N. gonorrhoeae [1] was determined as 0.240. Further, the PAE in the test on N. gonorrhoeae [2] (Ng 181), in the test with N. gonorrhoeae [2] (Ng 186), in the test on N. gonorrhoeae [2] (Ng 194), in the test with N. gonorrhoeae [2] (Ng 198) and with N. gonorrhoeae [2] (clinical isolates of N. gonorrhoeae) was 10 h each time.
